From patent US7214688B2 (priority 2000, dated 2007)

Target: α7 nAChR subtype (Rattus norvegicus, UniProt Q05941)
Format: binding
Details: read-out: KD of radioligand (saturation curves, one site model)

Chain of α7 nAChR subtype (Q05941 23-502 limits assumed): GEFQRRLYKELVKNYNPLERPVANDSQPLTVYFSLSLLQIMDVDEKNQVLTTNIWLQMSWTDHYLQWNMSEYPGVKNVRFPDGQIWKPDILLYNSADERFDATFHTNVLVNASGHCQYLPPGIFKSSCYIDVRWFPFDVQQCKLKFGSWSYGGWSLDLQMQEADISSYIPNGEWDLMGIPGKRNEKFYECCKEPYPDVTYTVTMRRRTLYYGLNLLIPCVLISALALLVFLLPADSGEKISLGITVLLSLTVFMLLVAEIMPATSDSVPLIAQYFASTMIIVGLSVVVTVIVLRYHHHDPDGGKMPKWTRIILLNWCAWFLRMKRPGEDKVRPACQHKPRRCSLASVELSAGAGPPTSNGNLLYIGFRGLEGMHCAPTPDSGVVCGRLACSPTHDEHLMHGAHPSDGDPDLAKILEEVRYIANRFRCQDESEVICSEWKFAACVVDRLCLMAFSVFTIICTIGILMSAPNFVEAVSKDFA

Substance: 125I-α-Bungarotoxin [Example 125I-α-BTX]
- Kd: 1.67 nM
